# Measured values taken from US7056506B2, “Methods for detecting and inhibiting angiogenesis” (The Regents of the University of California, priority 1998, dated 2006).
# What was measured:
# [1] = tested on: VEGF-induced angiogenesis on the chick CAM; assay: In ovo chick CAM angiogenesis assay, VEGF stimulated; type: in vivo; conditions: for effect of applied matrix protein on the angiogenic effect of VEGF: matrix protein applied to VEGF stimulated CAM's
# Source text: (§1) Ten day old embryonated chicken eggs (McIntyre Poultry; Ramona Calif.) were candled to illuminate blood vessels under the shell and an area with a minimum of small blood vessels is identified. The CAM was dropped away from the eggshell in this area by grinding a small hole in the mineralized shell and applying pressure to the underlying inner shell membrane. This procedure caused an air pocket to shift from the wide end of the egg to the identified area and forcing a circular region of the CAM approximately 2 cm in diameter to drop away from the shell. A window was cut in the egg shell and a cortisone acetate pre-treated filter disc 5 mm in diameter that had been saturated in 1 μg/ml bFGF, VEGF, TNFα, IL-8 (Genzyme, Inc.; Cambridge Mass.) or saline was placed on the CAM. The window in the shell was sealed with adhesive tape and the egg was incubated for four days.
# (§2) Anti-fibronectin antibodies (25 μg in 25 μl) also were applied topically to the CAM.
# (§3) Fibronectin, vitronectin and fibronectin fragments (59 pmol in a final volume of 25 μl) were applied to stimulated or unstimulated CAM's. Peptide or small molecule antagonists of α5β1 (at a final serum concentration of 0–25 μM) also were injected intravenously into the chick circulation 24 hr later. CAM's were harvested on the fourth day of stimulation. Blood vessel branch points in the 5 mm filter disk area were counted at 30× magnification in a blinded fashion as a size-independent quantitative indicator of vascular sprouting in response to growth factors. Angiogenesis is characterized by the sprouting of new vessels in response to growth factors. Thus, counting of blood vessel branch points is a useful quantitative means of obtaining an angiogenic index (Brooks et al., In “Methods in Molecular Biology” (Humana Press 1999). At least ten embryos were used per treatment group. Each experiment was performed a minimum of three times.
# (§4) Data was evaluated in terms of average number of blood vessel branch points per treatment group +/−standard error of measurement . Statistical analyses were performed using Student's t-test. Representative CAMS from each treatment group were photographed at 10X magnification. In some cases, CAM tissue excised from the egg was frozen in OCT (Baxter; McGraw Park Ill.) in liquid nitrogen, cut into 5 μm sections, air dried and processed for immunohistochemical analysis as described in Example I, except without fixation.
# [2] = tested on: bFGF-induced angiogenesis on the chick CAM; assay: In ovo chick CAM angiogenesis assay, bFGF stimulated; type: in vivo
# Source text: as §1, §2, §3, §4
# [3] = tested on: HT29 colon carcinoma cells lacking α5β1 expression; assay: Chick CAM tumor assay, HT29; type: in vivo; conditions: HT29 tumors on CAM
# Description: The chick CAM tumor assay was performed by placing ten million tumor cells on the surface of a CAM, and culturing the cells for one week. The resulting tumors were excised and cut into 50 mg fragments. […] Forty-eight hours later, CAM's were excised from the egg and the number of blood vessels entering the tumors were counted (as vessel branch points).
# Data was presented as mean blood vessel number per treatment group (+/− standard error of measurement). Each treatment group incorporated at least ten tumors per experiment. Representative tumors were photographed at 10× magnification. Tumors were excised from the egg and tumor weights were determined for each tumor Data was presented as mean tumor weight per treatment group (+/− standard error of measurement). Statistical analyses were performed using Student's t-test.
# HT29 colon carcinoma cells lacking α5β1 expression were grown on the CAM's of 10-day old embryos. These tumor cells secrete several angiogenic growth factors, including VEGF, TGFα, TGFβ, TNFα, and IL-8 (Anzano et al., Cancer Res. 49:2898–2904 (1989); Varner et. al., supra, 1995; Ellis et al., J. Biol. Chem. 273:1052–1057 (1998)). Integrin α5β1 negative tumor cells were used to distinguish the potential anti-tumor effects from anti-vasculature effects of integrin α5β1 antagonists.
# [4] = tested on: chick embryo fibroblasts (CEF's); assay: Cell adhesion assay, adhesion to fibronectin; type: cell-based
# Source text: (§5) HT29 integrin α5β1^+ cells, integrin α5β1^− colon carcinoma cells (Varner et al., Mol. Biol. Cell 6:725–740 (1995)), and chick embryo fibroblasts (CEF's) were maintained in DMEM high glucose supplemented with 10% fetal bovine serum (FBS) and gentamycin. Human umbilical vein endothelial cells (HUVEC's) were maintained in M199 medium containing sodium bicarbonate, HEPES, heparin, endothelial cell growth supplement, 20% FBS and gentamycin. Culture media and reagents were from Irvine Scientific (Irvine, Calif.).
# (§6) The wells of 48 well culture dishes (Costar, Inc.) were coated with 1 μg/ml vitronectin, 2 μg/ml fibronectin (chick embryo fibroblasts and HUVEC's) or 10 μg/ml fibronectin (HT29-α5^+ cells) for 1 hr at 37° C., then blocked with 2% heat denatured BSA in PBS for 1 hr. Fifty thousand cells in 250 μl of adhesion buffer were added to triplicate wells containing 250 μl of a solution of 50 μg/ml of an anti-α5β1 function blocking antibody (NKI-SAM-1, JBS5 or IIA1), 50 μg/ml of an anti-α5β1 non-function blocking antibody (HA5 or VC5; Pharmingen, Inc.; San Diego Calif.), 10 μM cyclic peptides (Koivunen et al., J. Biol. Chem. 268:20205–20210 (1993); Koivunen et al., J. Cell Biol. 124:373380 (1994)), 0–10 μM SJ749 ((S)-2-{(2,4,6-trimethylphenyl)sulfonyl}amino-3{7-benzyloxycarbonyl-8-(2-pyridinylaminomethyl)-1-oxa-2,7-diazaspiro-{4,4}-non-2-en-3-yl}carbonylamino}propionic acid)), 50 μg/ml of LM609, an anti-αVβ3 function blocking antibody, 50 μg/ml P4C10, an anti-β1 function blocking antibody, 50 μg/ml of an anti-fibronectin cell binding domain monoclonal antibody or 50 μg/ml of an anti-fibronectin N-terminus monoclonal antibody in adhesion buffer (HEPES buffered Hanks balanced salt solution, HBSS, containing 1% BSA, 2 mM MgCl2, 2 mM CaCl2 and 0.2 mM MnCl2).
# (§7) Cells were allowed to adhere to dishes for 20 min at 37° C. Nonadherent cells were removed by washing each well four times with 500 μl of warm adhesion buffer. Adherent cells were then fixed for 15 min with 3.7% paraformaldehyde in PBS and stained with a 2% crystal violet solution. After extensive water washing to remove excess crystal violet, plates were dried overnight. Crystal violet was extracted by incubation for 15 min in 10% acetic acid and absorbance at 562 nm determined as an indicator of number of cells bound. Each experiment was performed in triplicate, with triplicate samples per condition.
# [5] = tested on: Human umbilical vein endothelial cells (HUVEC's); assay: Cell adhesion assay, adhesion to fibronectin; type: cell-based
# Source text: as §5, §6, §7
# α5^+ HT29 cells = assay: Cell adhesion assay, adhesion to fibronectin; type: cell-based, human
# Source text: as §5, §6
# Cells were allowed to adhere to dishes for 20 min at 37° C. Nonadherent cells were removed by washing each well four times with 500 μl of warm adhesion buffer. […] Crystal violet was extracted by incubation for 15 min in 10% acetic acid and absorbance at 562 nm determined as an indicator of number of cells bound. […]
# HUVEC's = assay: Cell migration assay on fibronectin; type: cell-based, human
# Description: The lower side of 8 μm pore transwell inserts (Costar, Inc.) were coated with 2 μg/ml of fibronectin, collagen (Collaborative Biomedical Products; Bedford Mass.) or no protein for 1 hr and were blocked with 2% BSA in PBS for 1 hr. The inserts then were placed into 24 well culture dishes containing 500 μl migration buffer in the lower chamber. Twenty-five thousand HUVEC's in 50 μl of migration buffer (HEPES buffered M199 medium containing 1% BSA, 2 mM MgCl2, 2 mM CaCl2 and 0.2 mM MnCl2) were added to the upper chamber of duplicate inserts containing 50 μl of a solution of 50 μg/ml of anti-α5β1 function blocking antibody (NKI-SAM-1, JBS5 or IIA1), 50 μg/ml of anti-α5β1 non-function blocking antibody (HA5 or VC5), or 50 μg/ml of LM609 (an anti-αVβ3 function blocking antibody) in migration buffer, or migration buffer alone.
# Cells were allowed to migrate from the upper to the lower chamber for 4 hr at 37° C. Nonmigratory cells were removed from the upper surface by wiping the upper side with an absorbant tip, and cells that had migrated to the lower side of the transwell insert were fixed for 15 min with 3.7% paraformaldehyde in PBS, then stained with a 2% crystal violet solution. After extensive water washing to remove excess crystal violet, the number of cells that had migrated were counted in three representative high power (200×) fields per insert. […]
# [6] = tested on: growth factor-induced angiogenesis in chick embryos; assay: Chick CAM angiogenesis assay, systemic administration, growth factor not specified; type: in vivo; conditions: chick embryo, read-out: amount inhibiting angiogenesis by 50% (converted)
# Source text: (§8) Ten day old embryonated chicken eggs (McIntyre Poultry; Ramona Calif.) were candled to illuminate blood vessels under the shell and an area with a minimum of small blood vessels is identified. The CAM was dropped away from the eggshell in this area by grinding a small hole in the mineralized shell and applying pressure to the underlying inner shell membrane. This procedure caused an air pocket to shift from the wide end of the egg to the identified area and forcing a circular region of the CAM approximately 2 cm in diameter to drop away from the shell. […]
# (§9) Fibronectin, vitronectin and fibronectin fragments (59 pmol in a final volume of 25 μl) were applied to stimulated or unstimulated CAM's. […] Blood vessel branch points in the 5 mm filter disk area were counted at 30× magnification in a blinded fashion as a size-independent quantitative indicator of vascular sprouting in response to growth factors. […] Thus, counting of blood vessel branch points is a useful quantitative means of obtaining an angiogenic index (Brooks et al., In “Methods in Molecular Biology” (Humana Press 1999). At least ten embryos were used per treatment group. Each experiment was performed a minimum of three times.
# (§10) Data was evaluated in terms of average number of blood vessel branch points per treatment group +/−standard error of measurement . […]
# [7] = tested on: blood vessels of unstimulated CAM's; assay: In ovo chick CAM angiogenesis assay, unstimulated CAM's; type: in vivo; conditions: absence of growth factor
# Source text: as §8, §9, §10
# [8] = matrix protein applied to bFGF stimulated CAM's
Molecule,effect on VEGF angiogenesis ([1]; VEGF stimulated CAM),inhibition of bFGF-induced angiogenesis (blood vessel branch points) ([2]; bFGF stimulated CAM),effect on tumor size [3],tumors smaller than control treated tumors [3] [%],effect on adhesion to fibronectin [4],effect on adhesion to fibronectin [5],effect on adhesion to fibronectin (α5^+ HT29 cells),effect on endothelial cell migration on fibronectin (HUVEC's),IC50 [6] [nM],effect of applied matrix protein on the angiogenic effect of VEGF [1],"enhancement of growth factor stimulated angiogenesis [2, 8]",effect on blood vessels / angiogenesis of unstimulated CAM's [7],"effect of applied matrix protein on bFGF stimulated angiogenesis [2, 8]"
CRRETAWAC,failed to block,90+/−6%,induced tumor regression,31,significantly inhibited,significantly inhibited,significantly inhibited,interfered,60,,,,
fibronectin: intact human fibronectin,,,,,,,,,,did not potentiate,at least 46+/−11%,neither fibronectin nor vitronectin promoted angiogenesis,
"vitronectin: vitronectin, extracellular matrix protein applied to CAM's (protein) DQESCKGRCTEGFNVDKKCQCDELCSYYQSCCTDYTAECKPQVTRGDVFTMPEDEYTVYDDGEEKNNATVHEQVGGPSLTSDLQAQSKGNPEQTPVLKPEEEAPAPEVGASKPEGIDSRPETLHPGRPQPPAEEELCSGKPFDAFTDLKNGSLFAFRGQYCYELDEKAVRPGYPKLIRDVWGIEGPIDAAFTRINCQGKTYLFKGSQYWRFEDGVLDPDYPRNISDGFDGIPDNVDAALALPAHSYSGRERVYFFKGKQYWEYQFQHQPSQEECEGSSLSAVFEHFAMMQRDSWEDIFELLFWGRTSAGTRQPQFISRDWHGVPGQVDAAMAGRIYISGMAPRPSLAKKQRFRHRNRKGYRSQRGHSRGRNQNSRRPSRATWLSLFSSEESNLGANNYDDYRMDWLVPATCEPIQSVFFFSGDKYYRVNLRTRRVDTVDPPYPRSIAQYWLGCPAPGHL",,,,,,,,,,did not potentiate,,neither fibronectin nor vitronectin promoted angiogenesis,no effect
